Data taken from patent publication US5053070A, “Pyrimidine derivatives, preparation processes thereof, herbicide containing the same, and herbicidal compositions containing the same along with other active ingredient” (Mitsui Toatsu Chemicals, Incorporated, priority 1988, dated 1991).
≈ marks a conversion by molar mass, not a printed value.

Legend:
Format in all cases: in vivo
barnyardgrass [1] = assay: Treatment of soil under submerged condition, pre-emergence (Test 4); conditions: 30 g ai/a granule, 30 days later
Description: (§1) 1/5000-are Wagner pots were filled with soil. Seeds or tubers of barnyardgrass, Monochoria vaginalis, bulrush, Sagittaria pygmaea, Cyperus seroylnus and Eleocharis kuroguwai were seeded or planted under submerged condition. Two pairs of rice seedlings (2-3 leaf stage), which had been reared in advance, were transplanted to each pot and were allowed to germinate in a green house. Each pair consisted of two rice seedlings. One day later (before emergence of weeds), each pot was treated with a granule which had been prepared by processing a predetermined amount of the test composition in accordance with a similar method to the method described in Formulation Example 9. The state of emergence of weeds and the state of injury of rice were observed 30 days later.
(§2) In the table, the degrees of damages of the test plants and the degrees of injury of rice are shown in a similar manner to Example 2.

Sagittaria pygmaea = assay: as above; conditions: 30 g ai/a granule, 30 days later
Description: as §1, §2

bulrush = assay: as above; conditions: 30 g ai/a granule, 30 days later
Description: as §1, §2

soybean = assay: Upland soil application test (Test 2), crop injury; conditions: 30 g ai/a, soil spray before emergence, 30 days later
Description: (§3) Resin-made 1/2500-are pots were filled with the soil of an upland field. After they were fertilized, soybean, peanut and cotton were seeded and 2-3 cm soil covering was applied. Seeds of redroot pigweed, common lambsquarters, barnyardgrass, green foxtail, large crabgrass, foxtail meadow and johnsongrass had been uniformly mixed with the soil. They were allowed to germinate in a green house. One day later (before emergence of weeds), a wettable powder prepared from a predetermined amount of each test compound in a similar manner to the method described in Formulation Example 1 was diluted with water and then sprayed evenly at an application rate equal to 10 l per are onto the surface of the soil by means of a pressure-operated ULV (ultra low volume) sprayer. Influence to the crops and weeds were observed 30 days later. The results are shown in Table 3, in which the degree of damages of each test plant and the degree of injury to each crop were determined by comparing the air-dried weights of the test plant and crop with those of the corresponding plant and crop in untreated pots and are shown in accordance with the following standard: […]

cotton = assay: Upland soil application test (Test 2), crop injury; conditions: 30 g ai/a, soil spray before emergence, 30 days later
Description: as §3

peanut = assay: Upland soil application test (Test 2), crop injury; conditions: 30 g ai/a, soil spray before emergence, 30 days later
Description: as §3

barnyardgrass [2] = assay: Upland soil application test (Test 2); conditions: 30 g ai/a, soil spray before emergence, 30 days later
Description: as §3

redroot pigweed = assay: Upland soil application test (Test 2); conditions: 30 g ai/a, soil spray before emergence, 30 days later
Description: as §3

large crabgrass = assay: Upland soil application test (Test 2); conditions: 30 g ai/a, soil spray before emergence, 30 days later
Description: as §3

green foxtail = assay: Upland soil application test (Test 2); conditions: 30 g ai/a, soil spray before emergence, 30 days later
Description: as §3

foxtail meadow = assay: Upland soil application test (Test 2); conditions: 30 g ai/a, soil spray before emergence, 30 days later
Description: as §3

johnsongrass = assay: Upland soil application test (Test 2); conditions: 30 g ai/a, soil spray before emergence, 30 days later
Description: as §3

common lambsquarters = assay: Upland soil application test (Test 2); conditions: 30 g ai/a, soil spray before emergence, 30 days later
Description: as §3

narrowleaf waterplantain = assay: Petri dish test (Test 6); conditions: 336 h; seeds on filter paper, 25° C., 14 days; read-out: I80 (ppm)
Description: A filter paper was placed in each glass-made Petri dish having a diameter of 9 cm. A compound dissolved in acetone was added in a predetermined amount. The filter paper was then dried in air to remove acetone. Seeds of narrowleaf waterplantain were placed on the filter paper and 10 ml of water were poured into the Petri dish. The seeds were allowed to grow at 25° C. in a bright room. Fourteen days later, the state of growth of narrowleaf water-plantain was observed.
In the table, the degree of damages of the test plant was determined by comparing the state of growth of the plant with that of the plant in an untreated group and is shown in accordance with the following standard: […]

## CC=CCON=Cc1ccccc1Oc1nc(OC)cc(OC)n1 [compound 8]
Barnyardgrass [1]
  Herbicidal effects Barnyardgrass: 4 (6-10 (Severe damages))
Sagittaria pygmaea
  Herbicidal effects Sagittaria Pygmaea: 4 (6-10 (Severe damages))
bulrush
  Herbicidal effects Bulrush: 4 (6-10 (Severe damages))
soybean
  Injury Soybean: 0 (91-100 (No damages))
cotton
  Injury Cotton: 0 (91-100 (No damages))
peanut
  Injury Peanut: 0 (91-100 (No damages))
Barnyardgrass [2]
  Herbicidal effects Barnyardgrass: 4 (6-10 (Severe damages))
Redroot pigweed
  Herbicidal effects Redroot pigweed: 5 (0-5 (Death))
Large crabgrass
  Herbicidal effects Large crabgrass: 4 (6-10 (Severe damages))
Green foxtail
  Herbicidal effects Green foxtail: 5 (0-5 (Death))
Foxtail meadow
  Herbicidal effects Foxtail meadow: 5 (0-5 (Death))
johnsongrass
  Herbicidal effects Johnsongrass: 5 (0-5 (Death))
Common lambsquarters
  Herbicidal effects Common lambsquarters: 4 (6-10 (Severe damages))
Narrowleaf waterplantain
  IC80: 40 µg/mL (≈ 121 µM)

## COc1cc(OC)nc(Oc2ccccc2C=NOCC=Cc2cccc(Cl)c2Cl)n1 [compound 41]
Barnyardgrass [1]
  Herbicidal effects Barnyardgrass: 5 (0-5 (Death))
Sagittaria pygmaea
  Herbicidal effects Sagittaria Pygmaea: 5 (0-5 (Death))
bulrush
  Herbicidal effects Bulrush: 4 (6-10 (Severe damages))
soybean
  Injury Soybean: 0 (91-100 (No damages))
cotton
  Injury Cotton: 0 (91-100 (No damages))
peanut
  Injury Peanut: 0 (91-100 (No damages))
Barnyardgrass [2]
  Herbicidal effects Barnyardgrass: 5 (0-5 (Death))
Redroot pigweed
  Herbicidal effects Redroot pigweed: 5 (0-5 (Death))
Large crabgrass
  Herbicidal effects Large crabgrass: 5 (0-5 (Death))
Green foxtail
  Herbicidal effects Green foxtail: 4 (6-10 (Severe damages))
Foxtail meadow
  Herbicidal effects Foxtail meadow: 4 (6-10 (Severe damages))
johnsongrass
  Herbicidal effects Johnsongrass: 4 (6-10 (Severe damages))
Common lambsquarters
  Herbicidal effects Common lambsquarters: 4 (6-10 (Severe damages))
Narrowleaf waterplantain
  IC80: 2 µg/mL (≈ 4.34 µM)

## CCCC=CCON=Cc1ccccc1Oc1nc(OC)cc(OC)n1 [compound 25]
Barnyardgrass [1]
  Herbicidal effects Barnyardgrass: 5 (0-5 (Death))
Sagittaria pygmaea
  Herbicidal effects Sagittaria Pygmaea: 4 (6-10 (Severe damages))
bulrush
  Herbicidal effects Bulrush: 3 (11-40 (Medium damages))
soybean
  Injury Soybean: 0 (91-100 (No damages))
cotton
  Injury Cotton: 0 (91-100 (No damages))
peanut
  Injury Peanut: 0 (91-100 (No damages))
Barnyardgrass [2]
  Herbicidal effects Barnyardgrass: 4 (6-10 (Severe damages))
Redroot pigweed
  Herbicidal effects Redroot pigweed: 4 (6-10 (Severe damages))
Large crabgrass
  Herbicidal effects Large crabgrass: 5 (0-5 (Death))
Green foxtail
  Herbicidal effects Green foxtail: 5 (0-5 (Death))
Foxtail meadow
  Herbicidal effects Foxtail meadow: 5 (0-5 (Death))
johnsongrass
  Herbicidal effects Johnsongrass: 5 (0-5 (Death))
Common lambsquarters
  Herbicidal effects Common lambsquarters: 4 (6-10 (Severe damages))
Narrowleaf waterplantain
  IC80: 17 µg/mL (≈ 47.6 µM)

## COc1cc(OC)nc(Oc2ccccc2C=NOCc2ccc(Cl)cc2Cl)n1 [Compound No. 17]
Barnyardgrass [1]
  Herbicidal effects Barnyardgrass: 4 (6-10 (Severe damages))
Sagittaria pygmaea
  Herbicidal effects Sagittaria Pygmaea: 3 (11-40 (Medium damages))
bulrush
  Herbicidal effects Bulrush: 4 (6-10 (Severe damages))
soybean
  Injury Soybean: 0 (91-100 (No damages))
cotton
  Injury Cotton: 0 (91-100 (No damages))
peanut
  Injury Peanut: 0 (91-100 (No damages))
Barnyardgrass [2]
  Herbicidal effects Barnyardgrass: 3 (11-40 (Medium damages))
Redroot pigweed
  Herbicidal effects Redroot pigweed: 3 (11-40 (Medium damages))
Large crabgrass
  Herbicidal effects Large crabgrass: 3 (11-40 (Medium damages))
Green foxtail
  Herbicidal effects Green foxtail: 3 (11-40 (Medium damages))
Foxtail meadow
  Herbicidal effects Foxtail meadow: 3 (11-40 (Medium damages))
johnsongrass
  Herbicidal effects Johnsongrass: 3 (11-40 (Medium damages))
Common lambsquarters
  Herbicidal effects Common lambsquarters: 4 (6-10 (Severe damages))
Narrowleaf waterplantain
  IC80: 100 µg/mL (≈ 230 µM)

## C=CC(C)ON=Cc1ccccc1Oc1nc(OC)cc(OC)n1 (stereo not shown) [Compound No. 2]
Barnyardgrass [1]
  Herbicidal effects Barnyardgrass: 5 (0-5 (Death))
Sagittaria pygmaea
  Herbicidal effects Sagittaria Pygmaea: 4 (6-10 (Severe damages))
bulrush
  Herbicidal effects Bulrush: 4 (6-10 (Severe damages))
soybean
  Injury Soybean: 0 (91-100 (No damages))
cotton
  Injury Cotton: 0 (91-100 (No damages))
peanut
  Injury Peanut: 0 (91-100 (No damages))
Barnyardgrass [2]
  Herbicidal effects Barnyardgrass: 5 (0-5 (Death))
Redroot pigweed
  Herbicidal effects Redroot pigweed: 4 (6-10 (Severe damages))
Large crabgrass
  Herbicidal effects Large crabgrass: 5 (0-5 (Death))
Green foxtail
  Herbicidal effects Green foxtail: 5 (0-5 (Death))
Foxtail meadow
  Herbicidal effects Foxtail meadow: 5 (0-5 (Death))
johnsongrass
  Herbicidal effects Johnsongrass: 5 (0-5 (Death))
Common lambsquarters
  Herbicidal effects Common lambsquarters: 4 (6-10 (Severe damages))
Narrowleaf waterplantain
  IC80: 100 µg/mL (≈ 304 µM)

## COc1cc(OC)nc(Oc2ccccc2C=NOCc2ccc(C)cc2)n1 [compound 19]
Barnyardgrass [1]
  Herbicidal effects Barnyardgrass: 4 (6-10 (Severe damages))
Sagittaria pygmaea
  Herbicidal effects Sagittaria Pygmaea: 4 (6-10 (Severe damages))
bulrush
  Herbicidal effects Bulrush: 4 (6-10 (Severe damages))
soybean
  Injury Soybean: 0 (91-100 (No damages))
cotton
  Injury Cotton: 0 (91-100 (No damages))
peanut
  Injury Peanut: 0 (91-100 (No damages))
Barnyardgrass [2]
  Herbicidal effects Barnyardgrass: 4 (6-10 (Severe damages))
Redroot pigweed
  Herbicidal effects Redroot pigweed: 3 (11-40 (Medium damages))
Large crabgrass
  Herbicidal effects Large crabgrass: 3 (11-40 (Medium damages))
Green foxtail
  Herbicidal effects Green foxtail: 4 (6-10 (Severe damages))
Foxtail meadow
  Herbicidal effects Foxtail meadow: 4 (6-10 (Severe damages))
johnsongrass
  Herbicidal effects Johnsongrass: 3 (11-40 (Medium damages))
Common lambsquarters
  Herbicidal effects Common lambsquarters: 4 (6-10 (Severe damages))
Narrowleaf waterplantain
  IC80: 100 µg/mL (≈ 264 µM)

## COc1cc(OC)nc(Oc2ccccc2C=O)n1 [B, reference compound]
Barnyardgrass [1]
  Herbicidal effects Barnyardgrass: 3 (11-40 (Medium damages))
Sagittaria pygmaea
  Herbicidal effects Sagittaria Pygmaea: 5 (0-5 (Death))
bulrush
  Herbicidal effects Bulrush: 3 (11-40 (Medium damages))
soybean
  Injury Soybean: 5 (0-5 (Death))
cotton
  Injury Cotton: 5 (0-5 (Death))
peanut
  Injury Peanut: 5 (0-5 (Death))
Barnyardgrass [2]
  Herbicidal effects Barnyardgrass: 4 (6-10 (Severe damages))
Redroot pigweed
  Herbicidal effects Redroot pigweed: 3 (11-40 (Medium damages))
Large crabgrass
  Herbicidal effects Large crabgrass: 4 (6-10 (Severe damages))
Green foxtail
  Herbicidal effects Green foxtail: 4 (6-10 (Severe damages))
Foxtail meadow
  Herbicidal effects Foxtail meadow: 4 (6-10 (Severe damages))
johnsongrass
  Herbicidal effects Johnsongrass: 4 (6-10 (Severe damages))
Common lambsquarters
  Herbicidal effects Common lambsquarters: 3 (11-40 (Medium damages))
Narrowleaf waterplantain
  IC80: 1 µg/mL (≈ 3.84 µM)

## COc1cc(OC)nc(Oc2ccccc2C=NOC(C)c2ccccc2)n1 (stereo not shown) [compound 21]
Barnyardgrass [1]
  Herbicidal effects Barnyardgrass: 3 (11-40 (Medium damages))
Sagittaria pygmaea
  Herbicidal effects Sagittaria Pygmaea: 3 (11-40 (Medium damages))
bulrush
  Herbicidal effects Bulrush: 3 (11-40 (Medium damages))
soybean
  Injury Soybean: 0 (91-100 (No damages))
cotton
  Injury Cotton: 0 (91-100 (No damages))
peanut
  Injury Peanut: 0 (91-100 (No damages))
Barnyardgrass [2]
  Herbicidal effects Barnyardgrass: 3 (11-40 (Medium damages))
Redroot pigweed
  Herbicidal effects Redroot pigweed: 3 (11-40 (Medium damages))
Large crabgrass
  Herbicidal effects Large crabgrass: 4 (6-10 (Severe damages))
Green foxtail
  Herbicidal effects Green foxtail: 4 (6-10 (Severe damages))
Foxtail meadow
  Herbicidal effects Foxtail meadow: 3 (11-40 (Medium damages))
johnsongrass
  Herbicidal effects Johnsongrass: 4 (6-10 (Severe damages))
Common lambsquarters
  Herbicidal effects Common lambsquarters: 3 (11-40 (Medium damages))
Narrowleaf waterplantain
  IC80: 100 µg/mL (≈ 264 µM)
